Measurements as given in ChEMBL document CHEMBL5143638, “Natural aloe emodin-hybridized sulfonamide aminophosphates as novel potential membrane-perturbing and DNA-intercalating agents against Enterococcus faecalis” (Bioorg Med Chem Lett, 2022).
≈ marks a conversion by molar mass, not a printed value. Calls of active or inactive are those of the source. The rule behind the calls is not given here.

Key:
Klebsiella pneumoniae = test: Antibacterial activity against Klebsiella pneumoniae assessed as inhibition of bacterial growth measured after 24 hrs by CLSI based broth microdilution method; assay type: functional
Enterococcus faecalis [1] = test: Antibacterial activity against Enterococcus faecalis assessed as inhibition of bacterial growth measured after 24 hrs by CLSI based broth microdilution method; assay type: functional
Staphylococcus aureus [2] = test: Antibacterial activity against methicillin-resistant Staphylococcus aureus N315 assessed as inhibition of bacterial growth measured after 24 hrs by CLSI based broth microdilution method; assay type: functional
Staphylococcus aureus [3] = test: Antibacterial activity against Staphylococcus aureus assessed as inhibition of bacterial growth measured after 24 hrs by CLSI based broth microdilution method; assay type: functional
Staphylococcus aureus [4] = test: Antibacterial activity against Staphylococcus aureus ATCC 25923 assessed as inhibition of bacterial growth measured after 24 hrs by CLSI based broth microdilution method; assay type: functional
Escherichia coli [5] = test: Antibacterial activity against Escherichia coli assessed as inhibition of bacterial growth measured after 24 hrs by CLSI based broth microdilution method; assay type: functional
Escherichia coli [6] = test: Antibacterial activity against Escherichia coli ATCC 25922 assessed as inhibition of bacterial growth measured after 24 hrs by CLSI based broth microdilution method; assay type: functional
Pseudomonas aeruginosa [7] = test: Antibacterial activity against Pseudomonas aeruginosa assessed as inhibition of bacterial growth measured after 24 hrs by CLSI based broth microdilution method; assay type: functional
Pseudomonas aeruginosa [8] = test: Antibacterial activity against Pseudomonas aeruginosa ATCC 27853 assessed as inhibition of bacterial growth measured after 24 hrs by CLSI based broth microdilution method; assay type: functional
Acinetobacter baumannii = test: Antibacterial activity against Acinetobacter baumannii assessed as inhibition of bacterial growth measured after 24 hrs by CLSI based broth microdilution method; assay type: functional
Enterococcus faecalis [9] = test: Bactericidal activity against Enterococcus faecalis assessed as reduction in colony forming units at 4 times MIC measured after 1.5 to 6 hrs by time-kill kinetics assay; assay type: functional; conditions: time 1.5-6 hrs
Erythrocyte [10] = test: Hemolytic activity in human RBC at 512 ug/ml incubated for 2 hrs by microplate reader analysis; assay type: toxicity, cell-based; conditions: dose 512 µg/ml
Erythrocyte [11] = test: Hemolytic activity in human RBC assessed as morphological changes at 512 ug/ml incubated for 2 hrs by microscopic analysis; assay type: toxicity, cell-based; conditions: dose 512 µg/ml
Cell membrane [12] = test: Disruption of membrane integrity in Escherichia coli ATCC 25922 assessed as membrane damage by measuring PI fluorescence at 1 to 8 times MIC incubated for 8 hrs by PI staining based analysis; assay type: subcellular
Cell membrane [13] = test: Disruption of membrane integrity in Enterococcus faecalis assessed as membrane damage by measuring PI fluorescence at 1 to 8 times MIC incubated for 8 hrs by PI staining based analysis; assay type: subcellular
Cell membrane [14] = test: Disruption of membrane integrity in Enterococcus faecalis assessed as membrane damage by measuring PI-DNA complex formation at 2 times MIC incubated for 20 to 200 mins by PI staining based analysis; conditions: time 20-200 min, TDE = time-dependent effect
Cell membrane [15] = test: Disruption of membrane integrity in Enterococcus faecalis assessed as membrane damage by measuring increase in red fluorescence at 2 to 8 times MIC incubated for 8 hrs by PI staining based fluorescence microscopic analysis; assay type: subcellular
Cell membrane [16] = test: Induction of membrane depolarization in Enterococcus faecalis assessed as increase in fluorescence intensity at 1 times MIC measured after 10 to 60 mins by diSC35 dye based fluorescence assay; assay type: subcellular; conditions: time 10-60 min, TDE = time-dependent effect
Cell membrane [17] = test: Induction of membrane damage in Enterococcus faecalis assessed as increase in protein leakage measured after 6 hrs by Bradford assay; assay type: subcellular; conditions: DDE = dose-dependent effect
Enterococcus faecalis [18] = test: Antibiofilm activity against Enterococcus faecalis assessed as reduction in biofilm formation at MIC measured after 24 hrs by crystal violet staining based analysis relative to control; assay type: functional; parameters: scale not given: the % may be the effect or the level left
Enterococcus faecalis [19] = test: Antibiofilm activity against Enterococcus faecalis assessed as reduction in biofilm formation at upto 8 times MIC measured after 24 hrs by crystal violet staining based analysis relative to control; assay type: functional; parameters: scale not given: the % may be the effect or the level left
Enterococcus faecalis [20] = test: Induction of intracellular ROS production in Enterococcus faecalis assessed as fold increase in intracellular ROS level at 0.25 ug/ml incubated for 6 hrs by DCFH-DA assay relative to control; assay type: functional; conditions: dose 0.25 µg/ml
Enterococcus faecalis [21] = test: Induction of intracellular ROS production in Enterococcus faecalis assessed as fold increase in intracellular ROS level at 2 ug/ml incubated for 6 hrs by DCFH-DA assay relative to control; assay type: functional; conditions: dose 2 µg/ml
Calf thymus DNA [22] = test: Binding affinity to calf thymus DNA assessed as compound-DNA complex formation by measuring hypochromic shift by UV-visible absorption spectrophotometric method; assay type: nucleic-acid assay; conditions: Bos taurus
Calf thymus DNA [23] = test: Binding affinity to calf thymus DNA assessed as DNA intercalation by neutral red dye uptake method; assay type: nucleic-acid assay; conditions: Bos taurus
Staphylococcus aureus [24] = test: Potency index, ratio of norfloxacin MIC to test compound MIC for antibacterial activity against methicillin-resistant Staphylococcus aureus N315 assessed as inhibition of bacterial growth measured after 24 hrs by CLSI based broth microdilution method; assay type: functional
Staphylococcus aureus [25] = test: Potency index, ratio of sulfisoxazole MIC to test compound MIC for antibacterial activity against Staphylococcus aureus assessed as inhibition of bacterial growth measured after 24 hrs by CLSI based broth microdilution method; assay type: functional
Staphylococcus aureus [26] = test: Potency index, ratio of norfloxacin MIC to test compound MIC for antibacterial activity against Staphylococcus aureus assessed as inhibition of bacterial growth measured after 24 hrs by CLSI based broth microdilution method; assay type: functional

Row | Compound | MIC (Klebsiella pneumoniae) [µg/mL] | MIC (Enterococcus faecalis [1]) [µg/mL] | MIC (Staphylococcus aureus [2]) [µg/mL] | MIC (Staphylococcus aureus [3]) [µg/mL] | MIC (Staphylococcus aureus [4]) [µg/mL] | MIC (Escherichia coli [5]) [µg/mL] | MIC (Escherichia coli [6]) [µg/mL] | MIC (Pseudomonas aeruginosa [7]) [µg/mL] | MIC (Pseudomonas aeruginosa [8]) [µg/mL] | MIC (Acinetobacter baumannii) [µg/mL] | further results
1 | CCOP(=O)(OCC)C(Nc1ccc(S(=O)(=O)Nc2ncccn2)cc1)c1cc(O)c2c(c1)C(=O)c1cccc(O)c1C2=O (stereo not drawn) | 0.5 (≈ 0.783 µM) | 0.25 (≈ 0.391 µM) | 8 (≈ 12.5 µM) | 128 (≈ 200 µM) | 2 (≈ 3.13 µM) | 2 (≈ 3.13 µM) | 0.25 (≈ 0.391 µM) | 8 (≈ 12.5 µM) | 0.25 (≈ 0.391 µM) | 16 (≈ 25.1 µM) | Activity (Enterococcus faecalis [9]): 3 log10CFU/ml; Activity (Erythrocyte [10]): Non-Toxic; Activity (Erythrocyte [11]): Non-Toxic; Activity (Cell membrane [12]): Active; Activity (Cell membrane [13]): Active; Activity (Cell membrane [14]): Tde; Activity (Cell membrane [15]): Active; Activity (Cell membrane [16]): Tde; Activity (Cell membrane [17]): Dde; Activity (Enterococcus faecalis [18]): 30%; Activity (Enterococcus faecalis [19]): <=79%; fold change (FC) (Enterococcus faecalis [20]): 1.2; fold change (FC) (Enterococcus faecalis [21]): 2.4; Activity (Calf thymus DNA [22]): Active; Activity (Calf thymus DNA [23]): Active
2 | CCOP(=O)(OCC)C(Nc1ccc(S(=O)(=O)Nc2ccccn2)cc1)c1cc(O)c2c(c1)C(=O)c1cccc(O)c1C2=O (stereo not drawn) | 256 (≈ 402 µM) | 64 (≈ 100 µM) | 2 (≈ 3.14 µM) | 64 (≈ 100 µM) | 128 (≈ 201 µM) | 256 (≈ 402 µM) | 256 (≈ 402 µM) | 256 (≈ 402 µM) | 64 (≈ 100 µM) | 128 (≈ 201 µM) | Ratio (Staphylococcus aureus [24]): 4
3 | CCCCOP(=O)(OCCCC)C(Nc1ccc(S(=O)(=O)Nc2onc(C)c2C)cc1)c1cc(O)c2c(c1)C(=O)c1cccc(O)c1C2=O (stereo not drawn) | 16 (≈ 22.5 µM) | 128 (≈ 180 µM) | 64 (≈ 89.9 µM) | 4 (≈ 5.62 µM) | 2 (≈ 2.81 µM) | 256 (≈ 360 µM) | 8 (≈ 11.2 µM) | 8 (≈ 11.2 µM) | 256 (≈ 360 µM) | 8 (≈ 11.2 µM) | Ratio (Staphylococcus aureus [25]): 4; Ratio (Staphylococcus aureus [26]): 2
